How the values were obtained:
mice = experiment: protection against hepatotoxic dimethylsulfoxide; type: in vivo; details: for death after dimethylsulfoxide / protective activity against dimethylsulfoxide: 100 mg. disulfonic acid or 60 mg. disulfonamide in water and dimethylsulfoxide, i.p. or s.c.
Experimental: The surrounding carcinogens play an important role in the formation of malignant tumors. These carcinogens contain free radicals or they become carcinogenic in the living organism. […] As the radical reactions may be controlled by the antioxidants, they may be employed as therapeutic and as prophylactic agents as well. […] A hepatotoxic substance had to be administered which was simultaneously carcinogenic. Dimethylsulfoxide was suitable. 0.3 ml. of dimethylsulfoxide/mice was administered i.p. or s.c. in an aqueous solution and as a result 7 animals died within 10 days out of 10 test animals.

plasma concentration = type: in vivo
Source text: (§1) The concentration of the found MTDQ was the same as if it had not been the compound of the invention that had been administered, but rather MTDQ. […] The radioprotective activity of the water-soluble antioxidant is presumably due to the fact that the radiation energy is predominantly concentrated on the antioxidant and further that in addition to its membrane stabilizing activity the radicals and peroxides formed in the course of the irradiation, are inactivated by the antioxidant, in the well oxygenated cells.

[1] = detection of MTDQ in the liver; type: in vivo; details: after administration of the compound of the invention
Source text: as §1

malignant tumor tissues = details: cited from earlier work
[2] = inhibitor activity on the polymerization of acrylic acid at 60° C.; type: biochemical; details: control 16 hours
Experimental: The efficiency of the compounds of the invention was investigated in vitro by measuring the inhibitor activity of the compounds on the polymerization of acrylic acid at 60° C., and comparing this activity with that of 3.5-di-tert.butyl-4-hydroxy-toluene (BHT) and L-ascorbic acid. The radical binding activity of the compounds was studied.
The times required to polymerization are given in the next Table.

CFLP mice = experiment: protection against LD90 radiodose after i.p. administration; type: in vivo; details: 1000 mg./kg. i.p., preferably 2 hours before LD90 radiodose
Experimental: The unexpected activity of the new compounds has been observed during a total body irradiation. As test animals CFLP mice of an average weight of 20 to 22 g. were used, each group consisted of 8 male and 8 female animals. The control group was irradiated with 7 Gy (total body irradiation) and the test groups were treated per os for 10 days with the new water-soluble antioxidant of the invention at a daily dose of 0.5 g./kg. The treatment was followed by 7 Gy total body irradiation. There was no significant difference between the various water-soluble antioxidants and as a result within 30 days two animals of the control group were alive and an average of 12 animals survived in the treated group. A significant result was obtained with X^2 probe, p<0.001 and the Dose Modification Factor (DMF), which is the number of dead animals in the control group related to the number of dead animals in the treated group, amounted to 3.5 at LD80. A dose of 1000 mg./kg. bodyweight of MTDQ disulfonic acid Na was administered i.p. preferably 2 hours before irradiation with an LD90 radiodose and a 100% protective activity was obtained. […] It is known that the radioprotective compounds protect the healthy tissue cells better than the malignant tumor cells.

[3] = known radioprotective compounds; cited from earlier work
cancer of the bladder = details: large amount of Vitamin-C; cited from earlier work

For `CC1(C)C=C(CS(N)(=O)=O)c2cc(Cc3ccc4c(c3)C(CS(N)(=O)=O)=CC(C)(C)N4)ccc2N1` [disulfonamide], the death after dimethylsulfoxide (mice) was “no death was observed” and the “protective activity against dimethylsulfoxide” value (mice) was 100%.

For `CC1=CC(C)(C)Nc2ccc(Cc3ccc4c(c3)C(C)=CC(C)(C)N4)cc21` [MTDQ, 6,6'-methylene-bis(2,2,4-trimethyl-1,2-dihydroquinoline)], the “concentration of found MTDQ compared with administration of MTDQ itself” value (plasma concentration; after administration of the compound of the invention) was “the same”, the “MTDQ in the plasma as metabolite (desulfonation)” value (plasma concentration; after administration of the new compounds) was “found in the plasma” and the “MTDQ in the liver” value [1] was “could be detected in the liver”. For the same molecule, the “radiosensibility of malignant tumor tissues” value (malignant tumor tissues; in vivo) was “increase the radiosensibility of malignant tumor tissues” and the “reduction of radiodose for the same effect” value (malignant tumor tissues; radiosensitive tumors) was “at least 50%”.

With `CC1(C)C=C(CS(=O)(=O)O)c2cc(Cc3ccc4c(c3)C(CS(=O)(=O)O)=CC(C)(C)N4)ccc2N1` [MTDQ-disulfonic acid] the “times required to polymerization” value ([2]; concentration not given) was 400 h, the death after dimethylsulfoxide (mice) was “no death was observed” and the “protective activity against dimethylsulfoxide” value (mice) was 100%.

In the case of `Cc1cc(C(C)(C)C)c(O)c(C(C)(C)C)c1` [BHT, 3.5-di-tert.butyl-4-hydroxy-toluene], the “times required to polymerization” value ([2]; 0.02%) is reported as 120 h.

`CC1(C)C=C(CS(=O)(=O)O)c2cc(Cc3ccc4c(c3)C(CS(=O)(=O)O)=CC(C)(C)N4)ccc2N1` [MTDQ disulfonic acid Na, 6,6'-methylene-bis(2,2-dimethyl-4-methanesulfonic acid Na-1,2-dihydroquinoline)] gave a protective activity (CFLP mice) of 100%.

For `N[C@@H](CS)C(=O)O` [cysteine], the “duration of effect after administration” value [3] is listed as “extremely limited” and the “effective doses as radioprotective compound” value (from here on “effective doses”) [3] is listed as “effective only at subtoxic doses”.

In the case of `NCCS` [cysteamine, beta-mercapto-ethyl-amine], the “duration of effect after administration” value [3] is given as “extremely limited” and the “effective doses” value [3] is given as “effective only at subtoxic doses”.

For `NCCCNCCSP(=O)(O)O` [WR 2721, S-2-(3-aminopropyl)-aminoethyl-phosphorothioic acid], the “duration of effect after administration” value [3] is listed as “extremely limited” and the “effective doses” value [3] is listed as “effective only at subtoxic doses”.

For `O=C1O[C@H]([C@@H](O)CO)C(O)=C1O` [L-ascorbic acid], the “times required to polymerization” value ([2]; 0.02%) is given as 18 h and the “cancer of the bladder by beta-naphthyl-amine” value (cancer of the bladder) is given as “does not cause cancer of the bladder”.

With `C[S+](C)[O-]` [Dimethylsulfoxide] the “animals died within 10 days” value (mice; 0.3 ml./mice i.p. or s.c., out of 10 test animals) was 7 animals.

In the case of `Br.Br.N=C(N)SCCN` [AET, S-2-aminoethyl-isothiuronium-dihydrobromide], the “duration of effect after administration” value [3] is given as “extremely limited” and the “effective doses” value [3] is given as “effective only at subtoxic doses”.

Source: patent US4356306A, “Water-soluble derivatives of 6,6'-methylene-bis-(2,2,4-trimethyl-1,2-dihydroquinoline)” (Material Vegyipari Szovetkezet, priority 1979, dated 1982)
